Experimental findings from ChEMBL document CHEMBL5291721, “A preclinical secondary pharmacology resource illuminates target-adverse drug reaction associations of marketed drugs” (Nat Commun, 2023) are described below.

The structures appear in SMILES notation.

Experiment [1] has as its target Glutamate receptor ionotropic, NMDA 1 (Rattus norvegicus, UniProt P35439).
Experiment [2] concerns the target T1, Alpha-2B adrenergic receptor (Homo sapiens, UniProt P18089).
T1 sequence (P18089 whole entry): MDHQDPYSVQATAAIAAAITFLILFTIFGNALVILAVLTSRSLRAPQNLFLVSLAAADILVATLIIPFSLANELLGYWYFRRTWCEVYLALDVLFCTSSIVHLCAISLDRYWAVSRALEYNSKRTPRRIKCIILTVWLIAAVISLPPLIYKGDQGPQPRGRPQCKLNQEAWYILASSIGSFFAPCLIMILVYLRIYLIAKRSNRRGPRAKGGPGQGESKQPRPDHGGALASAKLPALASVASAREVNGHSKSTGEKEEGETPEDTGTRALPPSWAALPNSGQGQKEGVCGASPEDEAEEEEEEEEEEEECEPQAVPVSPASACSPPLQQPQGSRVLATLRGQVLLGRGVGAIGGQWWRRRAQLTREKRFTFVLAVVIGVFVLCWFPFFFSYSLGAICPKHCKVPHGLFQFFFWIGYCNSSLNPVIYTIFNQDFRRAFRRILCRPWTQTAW

Experiment [3] deals with Sodium-dependent serotonin transporter (Homo sapiens, UniProt P31645).
The target of experiment [4] is T2, B2 bradykinin receptor (Homo sapiens, UniProt P30411).
T2 sequence (P30411 whole entry): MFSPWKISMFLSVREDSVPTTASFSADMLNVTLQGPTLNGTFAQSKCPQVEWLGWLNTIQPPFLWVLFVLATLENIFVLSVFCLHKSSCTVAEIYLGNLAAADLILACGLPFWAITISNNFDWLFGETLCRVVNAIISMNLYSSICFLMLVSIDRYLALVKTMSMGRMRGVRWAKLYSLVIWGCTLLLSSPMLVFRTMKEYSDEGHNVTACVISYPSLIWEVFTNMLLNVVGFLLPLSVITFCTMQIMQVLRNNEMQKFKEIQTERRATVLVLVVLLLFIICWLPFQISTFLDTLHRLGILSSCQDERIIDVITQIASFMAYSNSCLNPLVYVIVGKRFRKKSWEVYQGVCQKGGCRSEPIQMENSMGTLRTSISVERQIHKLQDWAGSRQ

Experiment [5] concerns the target Kappa-type opioid receptor (Homo sapiens, UniProt P41145).
Experiment [6] addresses T3, Estrogen receptor (Homo sapiens, UniProt P03372).
T3 sequence (P03372 whole entry): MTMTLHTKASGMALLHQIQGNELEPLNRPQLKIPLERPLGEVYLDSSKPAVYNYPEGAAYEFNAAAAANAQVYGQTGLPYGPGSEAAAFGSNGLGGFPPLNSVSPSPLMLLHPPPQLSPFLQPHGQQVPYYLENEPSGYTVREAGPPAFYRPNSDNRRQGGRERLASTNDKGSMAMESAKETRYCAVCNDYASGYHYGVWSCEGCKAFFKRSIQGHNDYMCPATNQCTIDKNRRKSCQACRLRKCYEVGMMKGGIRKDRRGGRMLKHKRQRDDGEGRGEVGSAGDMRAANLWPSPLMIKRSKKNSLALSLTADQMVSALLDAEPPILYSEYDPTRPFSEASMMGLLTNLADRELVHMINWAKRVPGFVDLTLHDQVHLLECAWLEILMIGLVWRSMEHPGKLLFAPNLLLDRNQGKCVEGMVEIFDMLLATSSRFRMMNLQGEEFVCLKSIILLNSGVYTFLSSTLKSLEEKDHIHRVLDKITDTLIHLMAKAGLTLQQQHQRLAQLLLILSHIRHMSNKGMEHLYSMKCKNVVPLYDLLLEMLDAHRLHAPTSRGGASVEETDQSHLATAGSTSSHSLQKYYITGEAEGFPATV

The target of experiment [7] is T4, Thromboxane A2 receptor (Homo sapiens, UniProt P21731).
T4 sequence (P21731 whole entry): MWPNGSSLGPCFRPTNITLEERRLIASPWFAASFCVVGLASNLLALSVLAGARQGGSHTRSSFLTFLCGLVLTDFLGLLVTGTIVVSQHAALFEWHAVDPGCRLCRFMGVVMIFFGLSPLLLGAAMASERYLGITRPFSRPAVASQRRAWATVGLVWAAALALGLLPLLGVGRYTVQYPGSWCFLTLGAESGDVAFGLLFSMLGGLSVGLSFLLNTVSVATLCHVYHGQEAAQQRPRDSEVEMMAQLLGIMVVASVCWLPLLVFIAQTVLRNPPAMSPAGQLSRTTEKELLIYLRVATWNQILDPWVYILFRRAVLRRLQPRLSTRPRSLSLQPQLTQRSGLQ
The class given is functional, cell-based.

The target in experiment [8] is D(1A) dopamine receptor (Homo sapiens, UniProt P21728).
Experiment [9] concerns the target T4, Thromboxane A2 receptor. The class given is functional, cell-based. The source holds these as a separate data set.
Experiment [10] addresses Prostaglandin G/H synthase 1 (Homo sapiens, UniProt P23219). Format: functional.
The target of experiment [11] is Histamine H3 receptor (Homo sapiens, UniProt Q9Y5N1).
Experiment [12] deals with T5, Alpha-2A adrenergic receptor (Homo sapiens, UniProt P08913).
T5 sequence (P08913 whole entry): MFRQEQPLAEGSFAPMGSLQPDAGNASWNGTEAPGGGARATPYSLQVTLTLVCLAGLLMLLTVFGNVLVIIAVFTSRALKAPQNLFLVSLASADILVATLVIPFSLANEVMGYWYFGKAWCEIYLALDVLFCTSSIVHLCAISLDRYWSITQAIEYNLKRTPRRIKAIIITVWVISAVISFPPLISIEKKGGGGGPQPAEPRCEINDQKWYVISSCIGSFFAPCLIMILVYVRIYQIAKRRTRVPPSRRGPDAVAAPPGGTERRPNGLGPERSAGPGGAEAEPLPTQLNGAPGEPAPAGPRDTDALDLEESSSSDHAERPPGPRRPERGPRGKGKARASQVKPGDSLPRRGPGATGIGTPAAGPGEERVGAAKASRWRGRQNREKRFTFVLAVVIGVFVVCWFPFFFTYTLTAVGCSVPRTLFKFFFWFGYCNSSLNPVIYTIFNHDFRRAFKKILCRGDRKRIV

Experiment [13] addresses D(3) dopamine receptor (Homo sapiens, UniProt P35462).
For experiment [14], the target named is 3',5'-cyclic-AMP phosphodiesterase 4A (Homo sapiens, UniProt P27815). The class given is functional.
Note: assay procedure not described here.

Sequence of Sodium-dependent serotonin transporter (P31645 whole entry): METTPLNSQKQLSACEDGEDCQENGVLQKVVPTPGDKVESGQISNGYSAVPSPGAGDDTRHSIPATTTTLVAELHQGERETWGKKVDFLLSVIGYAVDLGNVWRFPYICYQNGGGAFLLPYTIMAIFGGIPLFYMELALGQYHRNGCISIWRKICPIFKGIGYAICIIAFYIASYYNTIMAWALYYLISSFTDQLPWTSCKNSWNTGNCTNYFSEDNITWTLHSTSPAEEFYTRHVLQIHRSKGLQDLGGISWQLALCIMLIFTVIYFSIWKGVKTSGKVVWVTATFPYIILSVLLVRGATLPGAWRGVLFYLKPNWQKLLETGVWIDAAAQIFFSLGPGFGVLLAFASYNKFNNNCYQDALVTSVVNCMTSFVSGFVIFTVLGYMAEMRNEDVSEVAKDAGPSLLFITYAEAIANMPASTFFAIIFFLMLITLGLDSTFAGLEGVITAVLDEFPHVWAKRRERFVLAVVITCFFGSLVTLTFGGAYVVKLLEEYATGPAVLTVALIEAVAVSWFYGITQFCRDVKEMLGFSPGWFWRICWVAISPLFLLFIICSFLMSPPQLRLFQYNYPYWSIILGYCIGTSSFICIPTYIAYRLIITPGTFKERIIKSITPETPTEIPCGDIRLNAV
Sequence of Kappa-type opioid receptor (P41145 whole entry): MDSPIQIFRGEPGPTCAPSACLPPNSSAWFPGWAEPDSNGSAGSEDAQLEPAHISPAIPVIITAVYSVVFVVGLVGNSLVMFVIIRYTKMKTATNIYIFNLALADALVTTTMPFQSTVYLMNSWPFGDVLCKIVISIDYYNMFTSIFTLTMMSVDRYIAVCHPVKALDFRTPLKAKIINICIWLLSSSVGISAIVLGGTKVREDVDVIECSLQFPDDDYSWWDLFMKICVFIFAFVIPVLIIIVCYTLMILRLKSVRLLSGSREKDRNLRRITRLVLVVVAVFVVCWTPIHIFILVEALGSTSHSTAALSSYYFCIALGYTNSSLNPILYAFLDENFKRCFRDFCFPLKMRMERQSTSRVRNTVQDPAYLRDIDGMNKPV
Sequence of Histamine H3 receptor (Q9Y5N1 whole entry): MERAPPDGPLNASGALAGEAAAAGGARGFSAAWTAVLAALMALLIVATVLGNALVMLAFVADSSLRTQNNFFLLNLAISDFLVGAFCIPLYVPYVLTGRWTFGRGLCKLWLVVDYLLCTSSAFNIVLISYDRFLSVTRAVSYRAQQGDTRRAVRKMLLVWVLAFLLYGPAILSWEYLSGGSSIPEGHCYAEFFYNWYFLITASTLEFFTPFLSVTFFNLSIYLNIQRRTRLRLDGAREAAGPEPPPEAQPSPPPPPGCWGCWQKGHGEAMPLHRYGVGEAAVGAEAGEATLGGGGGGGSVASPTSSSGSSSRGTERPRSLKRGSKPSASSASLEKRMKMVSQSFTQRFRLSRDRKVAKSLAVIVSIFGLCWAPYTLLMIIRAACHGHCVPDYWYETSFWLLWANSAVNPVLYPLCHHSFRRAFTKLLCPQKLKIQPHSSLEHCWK
Sequence of Prostaglandin G/H synthase 1 (P23219 whole entry): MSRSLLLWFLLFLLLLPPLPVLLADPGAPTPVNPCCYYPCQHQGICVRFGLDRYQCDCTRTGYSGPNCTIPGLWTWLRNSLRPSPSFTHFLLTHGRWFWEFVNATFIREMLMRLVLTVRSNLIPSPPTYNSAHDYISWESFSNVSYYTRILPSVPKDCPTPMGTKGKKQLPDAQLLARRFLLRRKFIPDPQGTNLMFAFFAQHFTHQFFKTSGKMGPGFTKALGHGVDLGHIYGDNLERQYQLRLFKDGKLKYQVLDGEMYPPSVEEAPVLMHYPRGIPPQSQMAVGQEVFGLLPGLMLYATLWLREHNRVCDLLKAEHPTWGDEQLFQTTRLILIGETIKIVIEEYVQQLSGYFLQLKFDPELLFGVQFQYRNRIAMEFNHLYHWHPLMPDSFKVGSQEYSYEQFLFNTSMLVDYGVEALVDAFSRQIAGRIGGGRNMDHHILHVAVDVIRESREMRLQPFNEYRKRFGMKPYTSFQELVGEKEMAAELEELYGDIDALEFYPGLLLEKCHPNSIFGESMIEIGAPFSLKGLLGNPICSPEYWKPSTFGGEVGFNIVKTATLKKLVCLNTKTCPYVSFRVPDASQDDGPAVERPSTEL
Sequence of D(3) dopamine receptor (P35462 whole entry): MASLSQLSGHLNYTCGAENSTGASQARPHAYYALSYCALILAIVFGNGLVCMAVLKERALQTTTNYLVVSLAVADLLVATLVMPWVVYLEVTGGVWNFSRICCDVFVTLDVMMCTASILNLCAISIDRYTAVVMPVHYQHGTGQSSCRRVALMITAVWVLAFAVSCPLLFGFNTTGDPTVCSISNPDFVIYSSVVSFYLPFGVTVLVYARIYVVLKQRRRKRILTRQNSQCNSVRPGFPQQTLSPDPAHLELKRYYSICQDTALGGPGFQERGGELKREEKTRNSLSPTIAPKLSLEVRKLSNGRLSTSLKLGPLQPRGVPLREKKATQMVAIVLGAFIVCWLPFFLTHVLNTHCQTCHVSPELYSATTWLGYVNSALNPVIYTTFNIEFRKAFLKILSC
Sequence of 3',5'-cyclic-AMP phosphodiesterase 4A (P27815 whole entry): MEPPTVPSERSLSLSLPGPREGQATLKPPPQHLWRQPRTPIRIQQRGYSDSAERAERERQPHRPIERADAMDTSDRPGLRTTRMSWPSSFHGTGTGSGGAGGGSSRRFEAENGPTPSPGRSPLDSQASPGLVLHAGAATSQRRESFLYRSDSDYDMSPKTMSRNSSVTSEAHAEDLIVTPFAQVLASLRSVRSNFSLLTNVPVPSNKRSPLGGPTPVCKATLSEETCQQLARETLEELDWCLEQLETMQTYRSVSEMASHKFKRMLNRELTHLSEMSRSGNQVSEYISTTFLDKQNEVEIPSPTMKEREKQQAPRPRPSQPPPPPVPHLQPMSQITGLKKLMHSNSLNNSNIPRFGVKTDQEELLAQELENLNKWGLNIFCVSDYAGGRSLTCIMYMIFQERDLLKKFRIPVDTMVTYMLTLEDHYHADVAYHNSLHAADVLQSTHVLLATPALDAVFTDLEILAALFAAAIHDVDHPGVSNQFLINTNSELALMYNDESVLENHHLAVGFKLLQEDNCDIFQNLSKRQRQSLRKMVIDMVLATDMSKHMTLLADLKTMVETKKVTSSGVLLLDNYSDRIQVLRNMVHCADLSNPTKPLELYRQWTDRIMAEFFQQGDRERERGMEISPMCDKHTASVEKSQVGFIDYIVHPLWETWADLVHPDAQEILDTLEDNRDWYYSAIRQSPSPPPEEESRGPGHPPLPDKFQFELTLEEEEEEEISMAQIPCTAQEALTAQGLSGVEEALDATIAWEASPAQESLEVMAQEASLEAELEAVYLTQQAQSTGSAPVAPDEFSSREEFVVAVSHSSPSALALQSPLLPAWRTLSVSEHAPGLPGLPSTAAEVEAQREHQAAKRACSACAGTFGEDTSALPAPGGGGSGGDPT
Sequence of D(1A) dopamine receptor (P21728 whole entry): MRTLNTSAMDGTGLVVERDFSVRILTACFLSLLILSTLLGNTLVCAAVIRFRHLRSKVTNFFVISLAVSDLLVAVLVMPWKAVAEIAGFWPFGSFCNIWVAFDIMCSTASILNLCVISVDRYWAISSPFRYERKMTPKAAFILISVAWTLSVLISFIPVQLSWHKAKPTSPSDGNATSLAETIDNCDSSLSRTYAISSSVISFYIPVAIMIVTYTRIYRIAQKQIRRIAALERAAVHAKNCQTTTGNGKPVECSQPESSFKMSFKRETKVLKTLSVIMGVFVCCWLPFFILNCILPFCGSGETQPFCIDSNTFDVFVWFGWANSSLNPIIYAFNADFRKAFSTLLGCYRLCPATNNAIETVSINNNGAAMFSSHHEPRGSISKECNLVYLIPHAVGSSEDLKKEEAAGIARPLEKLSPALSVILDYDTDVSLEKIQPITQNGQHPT

The AC50 is the concentration giving half of the maximal activity seen. High values mean weaker potency, low ones greater potency. For `COc1ccc2c(c1)C(=O)N(CCc1ccc(S(=O)(=O)NC(=O)NC3CCCCC3)cc1)C(=O)C2(C)C` [GLIQUIDONE], the AC50 in [1], in [2], in [3], in experiment [4], in [5] and in experiment [6] was over 30 µM in each case.

Regarding `CO/N=C(\C(=O)N[C@@H]1C(=O)N2C(C(=O)[O-])=C(C[N+]3(C)CCCC3)CS[C@H]12)c1csc(N)n1`, the AC50 was over 30 µM in experiment [1]; over 300 µM in experiment [3]; over 30 µM in [4]; over 30 µM in experiment [5]; over 30 µM in [6].

`O=C(CCCCCCC(=O)Nc1ccccc1)NO` [VORINOSTAT]: the AC50 in experiment [1], in [2], in [3], in experiment [4], in experiment [5] and in [6] was over 30 µM each time.

Turning to `CCc1nn(CCCN2CCN(c3cccc(Cl)c3)CC2)c(=O)n1CCOc1ccccc1` [NEFAZODONE], the AC50 in experiment [1] was over 10 µM; in experiment [2] it was 0.34 µM; in [4], over 30 µM; in experiment [5] it was 5.46 µM; in experiment [6] it was over 30 µM.

As to `CCCS(=O)(=O)Nc1ccc(F)c(C(=O)c2c[nH]c3ncc(-c4ccc(Cl)cc4)cc23)c1F` [VEMURAFENIB], the concentration at half-maximal activity (AC50) in [1], in experiment [2], in [3], in [4], in experiment [5] and in experiment [6] was over 30 µM each time.

Take `CNC(=O)c1cc(Oc2ccc(NC(=O)Nc3ccc(Cl)c(C(F)(F)F)c3)cc2)ccn1` [SORAFENIB]: the AC50 in experiment [1] was over 30 µM; in [2], over 30 µM; in experiment [4], over 30 µM; in experiment [5], 23 µM.

Consider `OCc1cc([C@@H](O)CNCCCCCCOCCOCc2c(Cl)cccc2Cl)ccc1O` [VILANTEROL], for which the AC50 in [2] was over 30 µM; in [3], 2.8 µM.

In the case of `CC(C(=O)O)c1ccc(C(=O)c2cccs2)cc1` (stereo not drawn) [SUPROFEN], the AC50 in experiment [1], in experiment [2], in [3], in experiment [4] and in experiment [5] was over 10 µM each time.

Turning to `COC(=O)[C@@H]1CC2=CC(=O)CC[C@]2(C)[C@@]23O[C@@H]2C[C@@]2(C)[C@@H](CC[C@@]24CCC(=O)O4)[C@H]13` [EPLERENONE], the half-maximal activity concentration (AC50) in [1] is over 10 µM; in experiment [2], over 30 µM; in experiment [3] it was over 30 µM; in [4], over 30 µM; in [5], over 10 µM; in [6], over 30 µM.

Turning to `COC(=O)N[C@H](C(=O)N1CCC[C@H]1c1nc(-c2ccc(-c3ccc(-c4c[nH]c([C@@H]5CCCN5C(=O)[C@@H](NC(=O)OC)C(C)C)n4)cc3)cc2)c[nH]1)C(C)C`, the AC50 in [1] was over 30 µM; in [2], over 30 µM; in experiment [3], over 30 µM; in [4], over 30 µM; in experiment [5] it was 4.1 µM; in experiment [6], over 30 µM.

As to `COC(=O)N[C@H](C(=O)N[C@@H](Cc1ccccc1)[C@@H](O)CN(Cc1ccc(-c2ccccn2)cc1)NC(=O)[C@@H](NC(=O)OC)C(C)(C)C)C(C)(C)C` [ATAZANAVIR], the half-maximal activity concentration (AC50) in [1] was over 10 µM; in experiment [2], over 10 µM; in experiment [3] it was over 30 µM; in [4], over 30 µM; in [5], 1.06 µM; in experiment [6] it was over 30 µM.

For the compound `CN1C(=O)CC(C)(c2ccccc2)C1=O` (stereo not drawn) [METHSUXIMIDE], the AC50 in experiment [1], in experiment [2], in [3], in [4], in experiment [5] and in experiment [6] was over 10 µM throughout.

In the case of `N[C@@H](C(=O)N[C@@H]1C(=O)N2C(C(=O)O)=C(Cl)CS[C@H]12)c1ccccc1` [CEFACLOR ANHYDROUS], the AC50 in experiment [1], in experiment [2], in experiment [3], in experiment [4], in experiment [5] and in experiment [6] was over 30 µM in each case.

Turning to `CC(C)Cc1ccc(CC(=O)O)cc1` [IBUFENAC], the AC50 in experiment [2] and in experiment [3] was over 30 µM each time.

On to `Cc1ccc(C(=O)c2cc(O)c(O)c([N+](=O)[O-])c2)cc1` [TOLCAPONE], for which the AC50 was over 10 µM in [1]; over 10 µM in [2]; over 30 µM in experiment [3]; over 10 µM in experiment [4]; over 10 µM in experiment [5].

Take `CS(=O)(=O)c1ccc([C@@H](O)[C@@H](CO)NC(=O)C(Cl)Cl)cc1` [THIAMPHENICOL]: the AC50 in [1], in experiment [7], in [8], in experiment [4], in experiment [5] and in experiment [9] was over 30 µM throughout. Moreover, the half-maximal activity concentration (AC50) in experiment [10], in [11], in experiment [12], in experiment [13], in [6] and in experiment [14] was over 30 µM in each case.

Consider `NC(=O)c1ncn([C@@H]2O[C@H](CO)[C@@H](O)[C@H]2O)c1O` [MIZORIBINE], for which the AC50 in [1], in [2], in experiment [3], in experiment [4], in experiment [5] and in experiment [6] was over 30 µM in each case.

For `C[C@@H]1O[C@@H]1P(=O)(O)O` [FOSFOMYCIN], the concentration at half-maximal activity (AC50) in [1], in experiment [2], in experiment [3], in [4] and in experiment [5] was over 10 µM in each case.

For `CC(=O)c1ccc2c(c1)N(CCCN1CCN(CCO)CC1)c1ccccc1S2` [ACETOPHENAZINE], the half-maximal activity concentration (AC50) in [2] was determined as 0.056 µM; in experiment [3], 17 µM.

For `CN1CCCC(n2nc(Cc3ccc(Cl)cc3)c3ccccc3c2=O)CC1` (stereo not drawn) [AZELASTINE], the values for the AC50 in [2] and in experiment [3] were 3.8 µM and 3.5 µM, respectively.
